Results from patent publication US6806276B2, “2-oxoquinoline compounds and pharmaceutical uses thereof” (Japan Tobacco Inc., priority 1999, dated 2004).
Where a name gives a salt, the structure may show the parent alone. Read-outs that look alike come from different tables or passages of the source.

Key:
[1] = test system: carrageenin-induced paw edema; test: Carrageenin-induced paw edema model (in vivo); design: species or system C57BL/6J mice; conditions: mice, oral in olive oil 1 hour before carrageenin, paw volume 3 hours later
Procedure: [2] Carrageenin-induced paw edema model (in vivo)
C57BL/6J mice (6 to 8 weeks of age) were used. […] After one hour of the administration, 50 μl of 1% solution of carrageenin in normal saline was administered intradermally at foot pad of the right hind paw. Three hours later, the volume of the right hind paw was measured and compared with the initial volume.

[2] = target: T1, human central type cannabinoid receptor (hCB1) (Homo sapiens, UniProt P21554); test: Binding assay (in vitro), [3H]Win55212-2 displacement, membrane fractions of human CB1-CHO; conditions: hCB1 expressed in CHO cells, [3H]Win55212-2 2 nM, 30° C. 90 minutes
T1 construct: expressed in transfected cells; host or cells: CHO cells

[3] = target: T2, human peripheral type cannabinoid receptor (hCB2) (Homo sapiens, UniProt P34972); test: Binding assay (in vitro), [3H]Win55212-2 displacement, membrane fractions of human CB2-CHO; conditions: for Ki: hCB2 expressed in CHO cells, [3H]Win55212-2 2 nM, 30° C. 90 minutes; for C/S (Ki central type receptors / Ki peripheral type receptors): indicator of selectivity for peripheral type receptors
T2 construct: expressed in transfected cells; host or cells: CHO cells

[4] = read-out: Ki value Central type receptor (C)
[5] = Ki value Peripheral type receptor (S)
[6] = Ki value Central type receptor (C)
[7] = read-out: Ki value Peripheral type receptor (S)

T2 sequence (P34972 whole entry): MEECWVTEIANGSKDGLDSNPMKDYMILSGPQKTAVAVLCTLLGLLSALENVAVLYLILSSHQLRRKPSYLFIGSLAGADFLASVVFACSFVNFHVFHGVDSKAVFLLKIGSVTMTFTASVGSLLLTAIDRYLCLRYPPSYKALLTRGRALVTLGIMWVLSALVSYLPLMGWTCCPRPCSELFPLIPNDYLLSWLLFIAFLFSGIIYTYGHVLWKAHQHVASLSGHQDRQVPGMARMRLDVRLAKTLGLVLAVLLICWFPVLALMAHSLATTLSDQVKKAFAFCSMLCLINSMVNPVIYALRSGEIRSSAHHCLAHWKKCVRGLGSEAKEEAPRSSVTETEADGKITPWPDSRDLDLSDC
T1 sequence (P21554 whole entry): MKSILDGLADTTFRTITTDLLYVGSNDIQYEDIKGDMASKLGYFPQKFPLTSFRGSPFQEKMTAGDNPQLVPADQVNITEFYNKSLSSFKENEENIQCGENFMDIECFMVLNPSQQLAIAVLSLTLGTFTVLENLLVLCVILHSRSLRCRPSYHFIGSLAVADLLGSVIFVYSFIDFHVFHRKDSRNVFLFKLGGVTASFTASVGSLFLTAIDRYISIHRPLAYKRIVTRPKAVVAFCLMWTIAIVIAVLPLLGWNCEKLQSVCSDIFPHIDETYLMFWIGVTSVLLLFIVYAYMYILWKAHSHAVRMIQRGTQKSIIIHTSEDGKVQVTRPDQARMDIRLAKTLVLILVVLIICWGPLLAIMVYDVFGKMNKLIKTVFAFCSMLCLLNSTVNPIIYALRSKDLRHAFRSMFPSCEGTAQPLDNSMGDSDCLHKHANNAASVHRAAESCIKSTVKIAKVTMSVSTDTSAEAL

Row | Ki [3, 7] | Compound | ED50 [1] | Ki [2, 4] | Ki [3, 5] | C/S (Ki central type receptors / Ki peripheral type receptors) [3] | C/S (Ki central type receptors / Ki peripheral type receptors) ([3]; hydrochloride) | Ki [2, 6] | ED60 [1]
1 |  | CCCCCOc1c(OC)ccc2cc(C(=O)NCc3ccc4c(c3)OCO4)c(=O)[nH]c12 [Example 3-5, 7-Methoxy-2-oxo-8-pentyloxy-1,2-dihydroquinoline-3-carboxylic acid (3,4-methylenedioxybenzyl)amide] | <0.10 mg/kg; p.o. | 3440 nM |  |  |  |  | 
2 |  | CCCCCOc1c(OC)ccc2cc(C(=O)NCc3ccncc3)c(=O)[nH]c12 [Example 3-9, 7-methoxy-2-oxo-8-pentyloxy-1,2-dihydroquinoline-3-carboxylic acid (4-pyridyl methyl)amide] | 0.58 mg/kg; p.o. |  |  |  |  |  | 
3 |  | CCCCCOc1c(OC)ccc2cc(C(=O)NCCN3CCOCC3)c(=O)[nH]c12 [Example 3-11, 7-methoxy-2-oxo-8-pentyloxy-1,2-dihydroquinoline-3-carboxylic acid (2-morpholinoethyl)amide] | 0.40 mg/kg; p.o. |  |  |  |  |  | 
4 |  | CCCCOc1c(OC)ccc2cc(C(=O)NCCc3ccc(F)cc3)c(=O)[nH]c12 [Example 3-15, 8-butoxy-7-methoxy-2-oxo-1,2-dihydroquinoline-3-carboxylic acid [2-(4-fluorophenyl)ethyl]amide] | 0.41 mg/kg; p.o. | 249 nM | 0.016 nM | 15580 |  |  | 
5 |  | CCCCOc1c(OC)ccc2cc(C(=O)NCCc3ccncc3)c(=O)[nH]c12 [Example 3-17, 8-butoxy-7-methoxy-2-oxo-1,2-dihydroquinoline-3-carboxylic acid (2-pyridine-4-ylethyl)amide hydrochloride] | 1.39 mg/kg; p.o. | 199 nM | 0.23 nM |  | 867 |  | 
6 |  | CCCCCOc1c(OC)ccc2cc(C(=O)NCCc3ccc(Cl)cc3)c(=O)[nH]c12 [Example 3-22, 7-methoxy-2-oxo-8-pentyloxy-1,2-dihydroquinoline-3-carboxylic acid [2-(4-chlorophenyl)ethyl]amide] | 0.76 mg/kg; p.o. |  | 0.2 nM | 675 |  | 135 nM | 
7 | 0.23 nM | CCCOc1c(OC)ccc2cc(C(=O)NCCc3ccncc3)c(=O)[nH]c12 [Example 3-26, 7-methoxy-2-oxo-8-propoxy-1,2-dihydroquinoline-3-carboxylic acid (2-pyridine-4-ylethyl)amide] |  | 648 nM |  | 2817 |  |  | 1.32 mg/kg; p.o.
8 | 0.021 nM | CCCOc1c(OC)ccc2cc(C(=O)NCCc3ccc(F)cc3)c(=O)[nH]c12 [Example 3-27, 7-methoxy-2-oxo-8-propoxy-1,2-dihydroquinoline-3-carboxylic acid [2-(4-fluorophenyl)ethyl]amide] |  | 336 nM |  | 15990 |  |  | 0.53 mg/kg; p.o.
9 |  | CCCOc1c(OC)ccc2cc(C(=O)NCCc3ccccc3)c(=O)[nH]c12 [Example 3-30, 7-methoxy-2-oxo-8-propoxy-1,2-dihydroquinoline-3-carboxylic acid (2-phenylethyl)amide] |  |  | 0.09 nM | 1862 |  |  | 0.49 mg/kg; p.o.
10 |  | CCCCCOc1c(OC)ccc2cc(C(=O)NCCc3ccncc3)c(=O)n(C)c12 [Example 3-37, 1-methyl-7-methoxy-2-oxo-8-pentyloxy-1,2-dihydroquinoline-3-carboxylic acid (2-pyridine-4-ylethyl)amide] |  |  | 0.75 nM | 104 |  | 78 nM | 0.63 mg/kg; p.o.
11 |  | CCCCCOc1c(OC)ccc2cc(C(=O)NCCN3CCOCC3)c(=O)n(C)c12 [Example 3-38, 1-methyl-7-methoxy-2-oxo-8-pentyloxy-1,2-dihydroquinoline-3-carboxylic acid (2-morpholinoethyl) amide] |  | 935 nM | 0.085 nM | 11002 |  |  | 2.24 mg/kg; p.o.
12 |  | CCCCCOc1c(OC)ccc2cc(C(=O)NCc3ccc(F)cc3)c(=O)n(C)c12 [Example 3-40, 1-methyl-7-methoxy-2-oxo-8-pentyloxy-1,2-dihydroquinoline-3-carboxylic acid (4-fluorobenzyl)amide] |  | 703 nM | 2.13 nM | 330 |  |  | 1.19 mg/kg; p.o.
13 |  | CCCCCOc1cc2cc(C(=O)NCc3ccc4c(c3)OCO4)c(=O)n(C)c2cc1OC [Example 3-45, 1-methyl-7-methoxy-2-oxo-6-pentyloxy-1,2-dihydroquinoline-3-carboxylic acid (3,4-methylenedioxybenzyl)amide] |  | 381 nM | 0.032 nM | 11902 |  |  | 
14 |  | CCCCCOc1ccc2cc(C(=O)NCCc3ccc(F)cc3)c(=O)[nH]c2c1OCCCCC [Example 3-46, 7,8-dipentyloxy-2-oxo-1,2-dihydroquinoline-3-carboxylic acid [2-(4-fluorophenyl)ethyl]amide] |  |  | 0.026 nM | 8776 |  | 228 nM | 
15 | 0.055 nM | CCOc1c(OC)ccc2cc(CO)c(=O)[nH]c12 [Example 5-2, 8-ethoxy-3-hydroxymethyl-7-methoxy-2-oxo-1,2-dihydroquinoline] |  | 122 nM |  | 2219 |  |  | 
16 | 0.034 nM | CCOc1c(OC)ccc2cc(COC(=O)Nc3ccncc3)c(=O)[nH]c12 [Example 6-2, N-pyridine-4-ylcarbamic acid (8-ethoxy-7-methoxy-2-oxo-1,2-dihydroquinoline-3-yl)methyl ester] |  | 437 nM |  | 12866 |  |  | 
17 | 0.17 nM | CCOc1c(OC)ccc2cc(CN(C)C)c(=O)[nH]c12 [Example 7-1, 3-dimethyl aminomethyl-8-ethoxy-7-methoxy-2-oxo-1,2-dihydroquinoline] |  | 3640 nM |  | 21432 |  |  | 
18 | 0.062 nM | CCOc1c(OC)ccc2cc(CN3CCOCC3)c(=O)[nH]c12 [Example 7-3, 8-ethoxy-7-methoxy-3-morpholinomethyl-2-oxo-1,2-dihydroquinoline] |  | 666 nM |  | 10735 |  |  | 
19 |  | CCCCOc1c(OC)ccc2cc(CNC(=O)Cc3ccc(O)cc3)c(=O)[nH]c12 [Example 8-2, N-[(8-butoxy-7-methoxy-2-oxo-1,2-dihydroquinoline-3-yl)methyl]-(4-hydroxyphenyl)acetamide] |  | 727 nM | 0.27 nM | 2692 |  |  | 

Row | Compound | Ki [3, 7] | ED50 [1] | Ki [2, 4] | Ki [3, 5] | C/S (Ki central type receptors / Ki peripheral type receptors) [3] | C/S (Ki central type receptors / Ki peripheral type receptors) ([3]; hydrochloride) | Ki [2, 6] | ED60 [1]
20 | CCCCOc1c(OC)ccc2cc(CO)c(=O)[nH]c12 [Example 5-1, 8-butoxy-3-hydroxy methyl-7-methoxy-2-oxo-1,2-dihydroquinoline] | 0.45 nM |  | 686 nM |  |  |  |  | 
21 | CCCCOc1c(OC)ccc2cc(COC(=O)Nc3ccc(F)cc3)c(=O)[nH]c12 [Example 6-1, N-(4-fluorophenyl)carbamic acid (8-butoxy-7-methoxy-2-oxo-1,2-dihydroquinoline-3-yl)methyl ester] | 0.045 nM |  | 703 nM |  | 15612 |  |  | 
22 | CCCCOc1c(OC)ccc2cc(CNC(=O)Nc3ccc(F)cc3)c(=O)[nH]c12 [Example 8-1, N-[(8-butoxy-7-methoxy-2-oxo-1,2-dihydroquinoline-3-yl)methyl]-N′-(4-fluorophenyl)urea] | 0.44 nM |  | 440 nM |  | 1000 |  |  | 
